Measured values published in US20240408064A1, “RAS INHIBITORS, COMPOSITIONS AND METHODS OF USE THEREOF” (GENETOLEAD INC., priority 2021, published 2024).
Where two headings read alike, the source gives them in different places.

Tests used:
HRas^G12V [1] = target: T1, HRas^G12V (Homo sapiens (Human), UniProt P01112, G12V); experiment: Dissociation constant by NMR (1H/15N Fast-HSQC, 1H 1D protein-observed); type: binding
Method: All NMR experiments were collected using 3 mm NMR tubes on a 600 MHz Bruker Avance III spectrometer equipped with a QCI helium cryoprobe and a SampleJet sample changer. The buffer used for NMR experiments was 25 mM sodium phosphate pH 7.4, 150 mM NaCl, 5 mM MgCl2, 1 mM TCEP-d16, 10% D2O. Data were processed using Bruker TopSpin.
^1H/^15N Fast-HSQC experiments (Mori et al., Journal of Magnetic Resonance, Series B, Volume 108, Issue 1, July 1995, Pages 94-98) were recorded at a protein concentration of 50-100 μM.
Dissociation constants were obtained by monitoring changes in chemical shifts as a function of ligand concentration. The changes in chemical shifts (d) were calculated according to the following equation (Williamson, Progress in Nuclear Magnetic Resonance Spectroscopy, Volume 73, August 2013, Pages 1-16): d=√(1/2[δ_H^2+[…]]), Where δ are the changes in chemical shift in ppm for ^1H and ^15N and the correction factor (α) was set at 0.15.
^1H 1D protein-observed experiments were recorded with 15-50 μM protein. The standard Bruker 1D ^1H sequence with excitation sculpting (zgesgp) was employed. A relaxation delay of 1 s was employed in order to use 256 scans while still keeping experimental time fairly short. Changes in protein chemical shift or peak intensity in the methyl region were monitored against compound concentration.

HRas^G12V [2] = target: T1, HRas^G12V; experiment: 19F T2-CPMG NMR score; type: binding
Procedure, shortened: (§1)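 In the T2-CPMG experiment, echo spacing was 1 ms and total delays ranged over eight values from 1 to 800 ms. Both scores come from 600 MHz NMR of 50 μM HRas G12V mixed with fragment pools at 240 μM each, in phosphate buffer pH 7.4 with NaCl, MgCl2 and TCEP-d16. Ligand-observed 19F spectra were recorded with 1H decoupling, 64 scans and a 5 s relaxation delay.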

HRas^G12V [3] = target: T1, HRas^G12V; experiment: 19F DLB (ligand-observed 19F NMR) score; type: binding; design: scale not given here
Procedure, shortened: as §1

KRAS^G12D-GDP [4] = target: T2, KRAS^G12D-GDP (Homo sapiens (Human), UniProt P01116, G12D); experiment: 19F DLB score, KRAS^G12D-GDP; type: binding; design: scale not given here
Method: (§2) Since the fragment library was curated using phosphate buffer, 25 mM sodium phosphate pH 7.4, 150 mM NaCl, 5 mM MgCl2, 1 mM TCEP-d16, 10% D2O Fresh TCEP was used for experiments. Screening was performed using ^1H-decoupled 1D ^19F experiment Bruker experiment (zgfhigqn.2) with 64 scans and a relaxation delay of 5 seconds. 50 μM HRas^G12V and 240 μM of each fragment in pools (mixtures) were used.
(§3) Hit confirmation was performed using the same ^19F experiment as the screen. Ligand-observed 1D ^1H, protein-observed 1D ^1H, ^1H T2-CPMG as well as Saturation Transfer Difference (STD) experiments were also run on the same samples. Ligand-observed 1D ^1H was run using the standard Bruker sequence with excitation sculpting (zgesgp) with a relaxation delay of 10 seconds and 16 scans per spectrum. Protein-observed 1D ^1H was performed using the same sequence with a relaxation delay of 1 second and 256 scans in order to increase the signal-to-noise of the protein resonances, while keeping the experimental time relatively short. The ^1H T2-CPMG experiment employed a modified version of the Bruker 1D ^1H zgesgp experiment with the addition of a CPMG pulse train after the first 90° excitation pulse. Total duration for each spin echo was fixed at 1 ms (τ=500 μs), while the number of echoes in the pulse train was varied according to the total time (T). The number of scans for each spectrum was 4 and eight delay times were run on each sample, ranging from 1 ms to 800 ms.
(§4) The activity of compounds of the invention regarding KRAS^G12D-GDP was measured in the same as in Example 80. The results obtained with the compounds in the various assays described above are depicted in Table 23.

HRas^G12V [5] = target: T1, HRas^G12V; experiment: Overall binding/activity in the various assays (NMR consensus binding)
Procedure, shortened: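 Fragments (240 µM each, pooled) screened against 50 µM HRas^G12V in 25 mM sodium phosphate pH 7.4, 150 mM NaCl, 5 mM MgCl2, 1 mM TCEP-d16 by 1H-decoupled 1D 19F NMR. Hits confirmed by ligand- and protein-observed 1D 1H, STD and T2-CPMG (aggregation check); consensus binding ranked, with 15N HSQC for sites and Kd.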

KRAS^G12D-GDP [6] = target: T2, KRAS^G12D-GDP; experiment: 19F T2-CPMG score, KRAS^G12D-GDP; type: binding
Method: as §2, §3, §4

T2 sequence (P01116-2 other isoform, or with tags, fused parts or gaps G12D): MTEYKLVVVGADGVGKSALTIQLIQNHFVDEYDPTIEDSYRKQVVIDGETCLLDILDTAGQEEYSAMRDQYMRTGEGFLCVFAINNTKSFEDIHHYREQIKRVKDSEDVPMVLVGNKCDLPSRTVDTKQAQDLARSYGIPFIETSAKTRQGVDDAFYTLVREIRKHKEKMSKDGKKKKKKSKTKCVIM

Compound | Kd (HRas^G12V [1]; HRas^G12V, read-out: NMR Kd) | 19F T2-CPMG Score (HRas^G12V [2]) | 19F DLB Score (HRas^G12V [3]) | 19F DLB Score (KRAS^G12D-GDP [4]) | Activity ranking on HRas^G12V (in words) (HRas^G12V [5]) | 19F T2-CPMG Score (KRAS^G12D-GDP [6]) | 19F DLB Score (HRas^G12V [3]; @ 50 uM) | Binding to HRas^G12V (in words) (HRas^G12V [5]) | Kd (HRas^G12V [1])
CC(=O)N[C@H]1CCN(C(=O)Cc2c[nH]c3cc(F)ccc23)C1 [Compound 10041] | 5.2 to 9 mM | 3.92 | 1.86 |  |  |  |  |  | 
NC(=O)C1CN(C(=O)Cc2c[nH]c3cc(F)ccc23)C1 [Compound 10114, 1-(2-(6-fluoro-1H-indol-3-yl)acetyl)azetidine-3-carboxamide] | 11.1 mM | 15.2 | 2.14 |  |  |  |  |  | 
CC(C(=O)N1CCC1)c1c[nH]c2cc(F)ccc12 (centres unmarked) [Compound 10066, 1-(azetidin-1-yl)-2-(6-fluoro-1H-indol-3-yl) propan-1-one] | 3.51 to 4 mM | 21.34 | 2.94 | 2.22 | More active | 9.14 |  |  | 
O=C(Cc1c[nH]c2cc(F)ccc12)N1CCCCC1 [Compound 10053] | 1.53 mM | 39.43 | 5.85 | 4.89 | More active | >LOQ |  |  | 
CS(=O)(=O)NCCc1c[nH]c2cc(F)ccc12 [Compound 10006, reference compound] | 10 mM | 19.5 | 3.24 |  |  |  |  |  | 
CC(=O)Nc1cccc(NC(=O)Cc2c[nH]c3cc(F)ccc23)c1 [Compound 10014] | 2.32 mM | 38.3 | 3.12 | 2.46 | More active | >LOQ |  |  | 
O=C(Cc1c[nH]c2ncc(F)cc12)N1CCC1 [Compound 10035, 1-(azetidin-1-yl)-2-(5-fluoro-1H-pyrrolo[2,3-b]pyridin-3-yl)ethan-1-one] | > 10 mM | −0.11 | 0.91 |  | More active |  |  |  | 
CN(C)S(=O)(=O)NCCc1c[nH]c2cc(F)ccc12 [Compound 10004, reference compound] | 6.16 to 6.4 mM | 19.49 |  | 2.06 |  | 9.41 | 5.34 @ 50 uM |  | 
CCOC(=O)Cc1c[nH]c2cc(F)ccc12 [Compound 11003, ethyl 2-(6-fluoro-1H-indol-3-yl) acetate] |  | 11.18 | 2.23 | 2.20 |  | 14.19 |  |  | 
O=C(Cc1c[nH]c2cc(F)ccc12)NC1CCOCC1 [Compound 10027] | 7.4 mM | 3.77 | 1.42 |  |  |  |  | low or no binding | 
CN(C)C[C@H]1CN(C(=O)Cc2c[nH]c3cc(F)ccc23)CCO1 [Compound 10160, (S)-1-(2-((dimethylamino)methyl)morpholino)-2-(6-fluoro-1H-indol-3-yl) ethan-1-one] | 1.28 mM |  | 6.24 |  |  |  |  |  | 
CC(CCO)NC(=O)Cc1c[nH]c2cc(F)ccc12 (centres unmarked) [Compound 10026] | 10 mM | 3.17 | 1.23 |  |  |  |  | low or no binding | 
O=C1CCN(C(=O)Cc2c[nH]c3cc(F)ccc23)CC1 [Compound 10106] |  | 13.41 | 2.25 |  |  |  |  |  | 6.43 mM
COCCNC(=O)Cc1c[nH]c2cc(F)ccc12 [Compound 10025] | 6 mM | 1.68 | 1.22 |  |  |  |  | low or no binding | 
CCOC(=O)C(C#N)c1c[nH]c2cc(F)ccc12 (centres unmarked) [Compound 11016] |  | 5.57 | 1.74 |  |  |  |  | low or no binding | 
CCOC(=O)[C@H](C)NC(=O)Cc1c[nH]c2cc(F)ccc12 [Compound 10038] |  | 2.19 | 1.1 |  |  |  |  | low or no binding | 
CC(=O)N1CC[C@H](NC(=O)Cc2c[nH]c3cc(F)ccc23)C1 [compound 10090] |  | 6.28 | 1.51 |  |  |  |  | low or no binding | 
CCOC(=O)C(CO)NC(=O)Cc1c[nH]c2cc(F)ccc12 (centres unmarked) [Compound 10105] |  | 2.44 | 1.2 |  |  |  |  | low or no binding | 
COCCOc1cccc(NC(=O)Cc2c[nH]c3cc(F)ccc23)c1 [compound 10094] |  | 2.5 | 3 |  |  |  |  | low or no binding | 
O=C(NCCc1c[nH]c2cc(F)ccc12)[C@@H]1CCCO1 [Compound 10023, (S)—N-(2-(6-fluoro-1H-indol-3-yl)ethyl) tetrahydrofuran-2-carboxamide] |  | 6.9 | 1.53 |  |  |  |  | low or no binding | 
CCOC(=O)[C@@H](NC(=O)Cc1c[nH]c2cc(F)ccc12)C(C)C [Compound 10079, Ethyl (2-(6-fluoro-1H-indol-3-yl)acetyl)valinate] |  | 2.25 | 1.23 |  |  |  |  | low or no binding | 
CN(C)C[C@@H]1CN(C(=O)Cc2c[nH]c3cc(F)ccc23)CCO1 [Compound 10159] | 2.95 to 3.43 mM | 19.26 | 3.93 |  | More active |  |  |  | 
O=C(O)C[C@H]1CN(C(=O)Cc2c[nH]c3cc(F)ccc23)CCO1 [Compound 10178, (S)-2-(4-(2-(6-fluoro-1H-indol-3-yl)acetyl)morpholin-2-yl)acetic acid] |  | 2.74 | 1.11 |  |  |  |  | low or no binding | 
O=C(Cc1c[nH]c2cc(F)ccc12)Nc1ccccc1 [Compound 10021, 2-(6-fluoro-1H-indol-3-yl)-N-phenyl acetamide] |  | 38.83 |  | 2.62 |  | >LOQ | 8.73 @ 50 uM |  | 
CCOC(=O)C(Cc1ccc(O)cc1)NC(=O)Cc1c[nH]c2cc(F)ccc12 (centres unmarked) [Compound 10098] |  | 5.94 | 1.38 |  |  |  |  | low or no binding | 
